A short description of data set [1]: Metabolic stability, rat. Particulars: Test conc: 2.5 µM. The class given is in vitro ADME. The source says: Table 1 Physicochemical and in Vitro ADME Properties of DF2726A. | column: DF2726A
For data set [2], the system named is paclitaxel-induced mechanical and cold allodynia. In words: Paclitaxel-induced mechanical and cold allodynia. The data set is classed as in vivo. Conditions: 30 mg/kg os for 14 days, rats. The procedure: 5/8 inch needles; Chemil s.r.l., Padova, Italy) at 0.08, 0.5, 1, 3, 6, 12, 24, 36 and 48 h for i.v. dosing and at 0.25, 0.5, 1, 3, 6, 12, 24, 36 and 48 h for oral dosing. After each blood withdrawal, the catheters were washed with 0.15-0.2 mL of sterile physiological saline and filled with 0.03 mL of heparin saline solution (0.25 U.I/mL). The heparinized blood was immediately centrifuged (8000 RPM for 5 min at approximately 4°C) and the resultant plasma transferred into vials and stored at - 20°C until analysis. DF2726A concentrations were quantified by HLPC-MS/MS using a chromatographic method with a lower limit of quantitation of 1 ng·mL -1. Non-compartmental analysis (Gibaldi and Perrier, 1982) were used to calculate the pharmacokinetic parameters using a MKModel by Nick Holford software Version 4, (Biosoft, Ferguson, MO 63 135, USA).
DF2726A was administered at a dose of 30 mg/2ml/kg/os for 14 consecutive days starting 3 days before paclitaxel administration and continuing for 11 days after the first administration of […]
Induction of neuropathy by paclitaxel
Rats received 4 once daily intraperitoneal (i.p.) injections of paclitaxel (Tocris, Italy) (2 mg/kg/day i.p.; cumulative dose of 8 mg/kg i.p.) or vehicle (saline, 1ml/kg/day i.p.), administered on alternate days (days 0, 2, 4, and 6) as descr ibed 4. […]
Pac+Saline group. […] Data are expressed as […]

The test system of data set [3] is IENFs (PGP9.5). In words: Oxaliplatin-induced loss of IENFs, PGP9.5 immunofluorescence of paw sections. The data set is classed as in vivo, male Wistar rats. Conditions: 30 mg/kg os, rat paw sections. The procedure:
(§1) Animals were sacrificed and a biopsy (3 mm) was taken from pad of the right hind paw. Biopsies were immediately placed in Zamboni’s fixative, where they were left at 4 °C. Tissues were then transferred to 20% sucrose for at least 24 h and used for immunohistochemistry analysis. Specimens were frozen in Optimal Cutting Temperature compound (OCT, Sakura Finetek Inc, CA, USA) and sliced into 20 μm thick serial coronal sections by cryostat AMES LAB-TEK (Westmont, Illinois, USA). […]
(§2) Five slices were examined for each animal. For each slide, 4 fields were counted. For quantitative evaluation of IL-8/CINC-1 (the homolog of IL-8 in rat) and […], photomicrographs for each condition were analysed by ImageJ software (National Institutes of Health, Bethesda, MD, USA) as previously described. […] The signal was first measured on the tissue in an area devoid of signal at visual inspection and assumed as background; the threshold was then set at 1.5 times the background and the surface area and mean grey intensity were measured for all areas above the threshold. […]

Data set [4] concerns IL-8/CINC1. In words: IL-8/CINC1 immunofluorescence of paw sections of oxaliplatin rats. The class given is in vivo, male Wistar rats. Conditions: 30 mg/kg os, rat paw sections. As for the experimental part:
as §1, §2

In data set [5] the test system is PI3K/p-cortactin. In words: PI3K/p-cortactin western blotting in F11-derived neurons. The data set is classed as cell-based. Conditions: 24 h. On the technique in general: In western blotting, separated proteins are transferred to a membrane and probed.
Data set [6] deals with PI3K and p-Akt. In words: PI3K and p-Akt western blotting in F11-derived neurons. Conditions: DF2726A 1 µM + oxaliplatin 20 µM, 24 h. The data set is classed as cell-based. The procedure: Following neuronal differentiation, neurons were treated for 24 h with DF2726A (1 μM final concentration), oxaliplatin (Sigma-Aldrich; 20 µM final concentration), or the combination of the two molecules.
Control and treated cells were collected and lysed in ice-cold RIPA buffer (PBS pH 7.4 containing 0.5% sodium deoxycolate, 1% Igepal, 0.1% SDS, 5 mM EDTA, 1% protease and phosphatase inhibitor cocktails; Sigma-Aldrich) as described in[22],[33]. Protein lysates (30 μg) were separated on 8–12% SDS-polyacrilamide gel and electroblotted onto polyvinyldifluoride membrane (PVDF; Sigma-Aldrich). Nonspecific binding sites were blocked by 5% non-fat dry milk (Bio-Rad Laboratories, Hercules, CA, USA) in Tris buffered saline (TBS: 20 mM Tris- HCl, pH 7.4, containing 150 mM NaCl) for 30 min at RT. […] The relative densities of immunoreactive bands were determined and normalized HRP-conjugated β-actin, using ImageJ software. […]

Data set [7] deals with 55 targets among GCPRs, ion channels, enzymes and transporters. Particulars: binding panel tested at 10 µM; ion channels up to 30 µM.
Method: target activities towards a panel of GPCRs, enzymes, ion channels, transporters and nuclear
water/HBSS to a final concentration of 10 μM. Cell membrane homogenates (48 μg protein) were
incubated for 60 min at 22°C with the respective reference compound in the absence or presence of
the test compound in a buffer containing 50 mM Tris-HCl (pH 7.4), 2 mM MgCl2 and 1 mM
EDTA. After incubation, the samples were filtered rapidly under vacuum through glass fiber filters
(GF/B, Packard Instruments, Meriden, CT, USA) presoaked with 0.3% polyethylenimine (PEI) and
rinsed several times with ice-cold 50 mM Tris-HCl using a 96-sample cell harvester (Unifilter,
Packard Instruments). The filters were dried, then counted for radioactivity in a scintillation counter
(Topcount, Packard Instruments) using a scintillation cocktail (Microscint-O, Packard Instruments).
The results were expressed as the percentage inhibition of the control radioligand-specific binding.
The compounds were tested at a single concentration of 10 µM in triplicate.
Tested targets were as follows:
GPCR: A2A (agonist radioligand), α1A (antagonist radioligand), α2A (antagonist radioligand), β1
(agonist radioligand), β2 (agonist radioligand), BK1 (antagonist and agonist radioligand), BK2
(antagonist and agonist radioligand), CB1 (antagonist and agonist radioligand), CB2 (antagonist and […]

The text below walks through data of PMC6692352, “DF2726A, a new IL-8 signalling inhibitor, is able to counteract chemotherapy-induced neuropathic pain” (Scientific Reports, 2019).

The structures appear in SMILES notation. A value given as a limit tells only on which side of the number the result lay.

`CC(C)(C(=O)O)c1ccc(Nc2nc(C(F)(F)F)cs2)cc1` [DF2726A] yielded a Metabolic stability rat in data set [1] of 15.3 µL/min/10^6 cells. Moreover, in data set [2], the “Effect on paclitaxel-induced mechanical and cold allodynia” value is “prevented”. Besides, the “Effect on oxaliplatin-induced loss of IENFs (PGP9.5)” value in data set [3] is “preventing the loss of epidermal innervation”. Further, the “Effect on oxaliplatin-increased IL-8/CINC1 signalling in the dermis” value in data set [4] is given as “significantly attenuated”. Also, in data set [5] (DF2726A 1 µM + oxaliplatin 20 µM), the “PI3K/p-cortactin expression, oxaliplatin-treated neurons” value was “attenuated this effect”. In addition, in data set [5] (DF2726A + paclitaxel 10 nM), the “PI3K/p-cortactin expression, paclitaxel-treated neurons” value is “attenuated this effect”. For the same compound, the “PI3K and p-Akt protein levels, oxaliplatin-treated neurons” value in data set [6] was “comparable to those of control cells”. Also, in data set [7], the “Selectivity for 55 targets in counterscreens” value was over 100 fold.
